From patent US8618151B2, “Inhibitors of HCV NS5A” (Presidio Pharmaceuticals, Inc., priority 2008, dated 2013)

System: HCV genotype 1b replicon
Test: HCV replicon assay (1b_Huh-Luc/Neo-ET cell line, luciferase readout)
Format: cell-based
Settings: Hepatitis C virus, Huh-7, 72 h, read-out: Inhibition of HCV genotype 1b
Method in brief: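 Luciferase activity (Bright-Glo) after 72 h compound exposure, in triplicate, measured replicon levels in Huh 7-derived 1b_Huh-Luc/Neo-ET cells. EC50 was fitted from percent-of-control values and determined in repeat runs.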

SMILES | EC50
COC(=O)N[C@H](C(=O)N1CCC[C@H]1c1ncc(-c2ccc3cc(-c4ccc5nc([C@@H]6CCCN6C(=O)[C@H](NC(=O)OC)c6ccccc6)[nH]c5n4)ccc3c2)[nH]1)C(C)C [compound 199] | < 1 nM
COC(=O)N[C@@H](C(=O)N1CCC[C@H]1c1nc(-c2ccc3c(c2)CCN(c2c(F)cc(-c4cnc([C@@H]5CCCN5C(=O)[C@H](NC(=O)OC)c5ccccc5)[nH]4)cc2F)C3)c[nH]1)c1ccccc1 [compound 270] | < 1 nM
COC(=O)N[C@H](C(=O)N1CCC[C@H]1c1ncc(-c2ccc3cc(-c4ccc(-c5cnc([C@@H]6CCCN6C(=O)[C@H](NC(=O)OC6CCOCC6)c6ccccc6)[nH]5)c(F)c4)ncc3c2)[nH]1)C1CCOCC1 [compound 154] | < 1 nM
COC(=O)N[C@H](C(=O)N1CCC[C@H]1c1nc2ccc(-c3ccc4nc(-c5cnc([C@@H]6CCCN6C(=O)[C@H](NC(=O)OC)c6ccccc6)[nH]5)ccc4c3)cc2[nH]1)C(C)C [compound 210] | < 1 nM
COC(=O)N[C@H](C(=O)N1CCC[C@H]1c1ncc(-c2ccc3cc(-c4ccc5nc([C@@H]6CCCN6C(=O)[C@@H](NC(=O)OC)C6CCOCC6)[nH]c5c4)ccc3c2)[nH]1)C(C)C [compound 189] | < 1 nM
COC(=O)N[C@H](C(=O)N1CCC[C@H]1c1ncc(-c2ccc(-c3ccc4cc(-c5c[nH]c([C@@H]6CCCN6C(=O)[C@@H](NC(=O)OC)C6CCOCC6)n5)ccc4c3)c(F)c2)[nH]1)C(C)C [compound 68] | < 1 nM
COC(=O)N[C@H](C(=O)N1CCC[C@H]1c1nc(-c2ccc3cc(-c4ccc(-c5cnc([C@@H]6CCCN6C(=O)[C@@H](NC(=O)OC)C6CCOCC6)[nH]5)cn4)ccc3c2)c[nH]1)C(C)C [compound 51] | < 1 nM
COC(=O)N[C@H](C(=O)N1CCC[C@H]1c1ncc(-c2ccc(-c3ccc4cc(-c5c[nH]c([C@@H]6CCCN6C(=O)[C@@H](c6ccccc6)N(C)C)n5)ccc4c3)cc2)[nH]1)C(C)C [compound 6] | < 1 nM
COC(=O)N[C@H](C(=O)N1CCC[C@H]1c1nc2ccc(-c3cccc4c(-c5ccc6nc([C@@H]7CCCN7C(=O)[C@@H](NC(=O)OC)C(C)C)[nH]c6c5)cccc34)cc2[nH]1)C(C)C [compound 277] | < 1 nM
COC(=O)N[C@H](C(=O)N1CCC[C@H]1c1nc(-c2cnc3cc(-c4ccc(-c5cnc([C@@H]6CCCN6C(=O)[C@@H](NC(=O)OC)C6CCOCC6)[nH]5)cc4)ccc3c2)c[nH]1)C(C)C [compound 49] | < 1 nM
COC(=O)N[C@H](C(=O)N1CCC[C@H]1c1ncc(-c2ccc(-c3ccc4cc(-c5cnc([C@@H]6CCCN6C(=O)[C@H](NC(=O)OC(C)(C)C)c6ccccc6)[nH]5)ccc4n3)c(F)c2)[nH]1)C1CCOCC1 [compound 136] | < 1 nM
COC(=O)N[C@H](C(=O)N1CCC[C@H]1c1ncc(-c2ccc3cc(-c4ccc(-c5cnc([C@@H]6CCCN6C(=O)[C@H](NC(=O)NC6CC6)c6ccccc6)[nH]5)cc4)ncc3c2)[nH]1)C1CCOCC1 [compound 145] | < 1 nM
COC(=O)N[C@H](C(=O)N1CCC[C@H]1c1ncc(-c2ccc3oc(-c4ccc(-c5cnc([C@@H]6CCCN6C(=O)[C@@H](NC(=O)OC)C6CCOCC6)[nH]5)cc4)nc3c2)[nH]1)C(C)C [compound 259] | < 1 nM
COC(=O)N[C@H](C(=O)N1CCC[C@H]1c1ncc(-c2ccc(-c3ccc4cc(-c5c[nH]c([C@@H]6CCCN6C(=O)[C@H](NC(=O)OC(C)(C)C)c6ccccc6)n5)ccc4n3)cc2)[nH]1)C1CCOCC1 [compound 91] | < 1 nM
COC(=O)N[C@H](C(=O)N1CCC[C@H]1c1nc(-c2ccc3c(=O)n(-c4ccc(-c5cnc([C@@H]6CCCN6C(=O)[C@@H](NC(=O)OC)C(C)C)[nH]5)cc4)ccc3c2)c[nH]1)C(C)C [compound 287] | < 1 nM
